Counter-ions that a name gives are not always drawn.
System: hen's chlorioallantoic membrane
Assay: CAM (Chorio Allantoic Membrane) assay
Assay type: in vivo
Details: for ED50: amount of drug which gave the numerical value 5 (positive rate) in CAM assay; for Positive rate of CAM assay: average neovascularization score (++=10, +=7, °=3, -=0), 3 days on membrane
Procedure: CAM (Chorio Allantoic Membrane) assay was conducted on various compounds of the present invention. The technique of the CAM assay was that modified somewhat on Auerbach's method [Developmental Biology, 41, 391 (1974)]. More specifically, hen's fertile eggs were incubated for three days at 37° C. (Napco carbon dioxide incubator-6300 was employed, CO2 :0% H2 O saturated). Polypropylene-made discs (6 mm. diameter) were spotted with a chloroform:ethanol (1:4 by volume) solution of each compound so that the concentration may be 0, 0.25, 0.64, 1.6, 4, 10 and 25 ug, respectively. The test materials were air-dried in a clean bench, which were then placed quietly on hen's chlorioallantoic membrane, followed by incubation at 37° C. for further three days. Then, the vascularization state was observed. In the tables, the positive rates were calculated on the following basis. Namely, degrees of neovascularization were determined as ++ for very strong, + for strong, ° for weak and - for negative, and they were numerized as 10, 7, 3 and 0, respectively. The average numerical value in each of the concentrations of the respective samples was made as positive rate. Further, the amount of the drug which gave the numerical value 5 in each sample was shown as ED50 value (ug/disc).

[1] = amount of sample 0.64 μg per disc
[2] = amount of sample 1.6 μg per disc
[3] = amount of sample 10 μg per disc
[4] = amount of sample 25 μg per disc

| SMILES | ED50 | Positive rate of CAM assay [1] | Positive rate of CAM assay [2] | Positive rate of CAM assay (amount of sample 4 μg per disc) | Positive rate of CAM assay [3] | Positive rate of CAM assay [4] |
| --- | --- | --- | --- | --- | --- | --- |
| CCCCCCCCCCCCCCCCCCCCCC(N)=O [Behenamide] | 2.76 ug/disc | 0 | 1.8 | 7.6 | 10 | 10 |
| CCCCCCCC/C=C\CCCCCCCCCCCC(=O)N1C(C(=O)O)CSC1c1ccncc1 (stereo not drawn) [2-Py-Thia-CO2 H] | 2.67 ug/disc | 2.8 | 2.6 | 6.8 | 10 | 10 |
| CCCCCCCC/C=C\CCCCCCCCCCCC(=O)N(CCO)CCO [N, N-di-diethanol] | 2.42 ug/disc | 1.0 | 2.3 | 8.0 | 10 | 10 |
| CCCCCCCC/C=C\CCCCCCCCCCCC(=O)N(C)C [N,N-dimethyl] | 5.41 ug/disc | 0 | 1.5 | 3.3 | 8.5 | 9.3 |
| CCCCCCCC/C=C/CCCCCCCCCCCC(N)=O [Brassidamide] | 1.89 ug/disc | 0 | 2.0 | 7.4 | 9.3 | 10 |
| CC/C=C\C/C=C\C/C=C\C/C=C\C/C=C\C/C=C\CCC(=O)O [Docosahexaenoic acid] | – | 0 | 0 | 0 | 0.6 | 4.8 |
| CCCCCCCCCCCCCCCCCCCCCCCCCC(=O)O [Cerotic acid] | 2.75 ug/disc | 1.8 | 2.5 | 7.8 | 9.3 | 8.5 |
| CCCCCCCCC(O)C(O)CCCCCCCCCCCC(=O)O (stereo not drawn) [Erucic acid diOH] | 3.45 ug/disc | 0 | 2.0 | 7.4 | 8.2 | 10 |
| CCCCCCCCCCCCCCCCCC(=O)O [Stearic acid] | 7.14 ug/disc | 0 | 0 | 1.8 | 6.8 | 9.4 |
| CCCCCCCC/C=C\CCCCCCCCCCCCN [1-Amino-13-docosene.HCl] | 0.94 ug/disc | 3.4 | 7.0 | 8.8 | 10 | > 10 |
| C=CCCCCCCCCCCCCCCCCCCCC [1-Docosene] | 5.46 ug/disc | 0 | 0 | 2.5 | 10 | 9.3 |
| CCCCCCCC/C=C/CCCCCCCCCCCC(=O)O [Brassidic acid] | 1.82 ug/disc | 3.5 | 6 | 6 | 9.3 | 10 |
| CCCCCCCCCCCCCCCC(=O)O [Palmitic acid] | 14.5 ug/disc | 0 | 0 | 0 | 3.2 | 7.6 |
| CCCCCCCC/C=C\CCCCCCCCCCCCO [13-Docosen-1-ol] | 2.15 ug/disc | 1.4 | 4.8 | 6.8 | 9.4 | 10 |
| CCCCCC[C@@H](O)C/C=C\CCCCCCCC(=O)O [Ricinoleic acid] | – | 0 | 1.8 | 1.2 | 2.6 | 3.2 |
| CCCCCCCCCCCCCCCCCCCC(=O)O [Arachidic acid] | 4.00 ug/disc | 0 | 4.6 | 4.6 | 7.6 | 8.8 |
| CCCCCCCC/C=C\CCCCCCCCCCCCCC(=O)O [Nervonic acid] | 2.75 ug/disc | 1.8 | 2.5 | 7.8 | 9.3 | 8.5 |
| CCCCC/C=C\C/C=C\C/C=C\C/C=C\CCCC(N)=O [Arachidonamide] | 6.13 ug/disc | 1.3 | 1.6 | 2.9 | 7.4 | 9.6 |
| CCCCCCCCC1OC1CCCCCCCCCCCCO (stereo not drawn) [13, 14-Eopxy-docosan-1-ol] | 5.18 ug/disc | 0 | 0 | 3.3 | 9.3 | 10 |
| CCCCCCCCCCCCCCCCCC(N)=O [Stearamide] | 2.63 ug/disc | 0 | 2 | 7.6 | 7.7 | 6.9 |
| CCCCCCCCCCCCCCCC(N)=O [Palmitamide] | 15.6 ug/disc | 0 | 0 | 0.3 | 2.4 | 7.7 |
| CCCC(N)=O [Butyramide, reference compound] | – | 0 | 0 | 0 | 0 | 0 |
| CCCCCCCCC(O)C(O)CCCCCCCCCCCC(N)=O (stereo not drawn) [Erucamide, diOH, 13,14-dihydroxydocosanamide] | 5.62 ug/disc | 0 | 2.0 | 3.8 | 7.0 | 9.4 |
| CCCCCCCC/C=C\CCCCCCCCCCCC(=O)NC [N-methyl, N-methyl erucamide] | 2.90 ug/disc | 0.8 | 2.3 | 7.8 | 10 | 10 |
| CCCCCCCC/C=C\CCCCCCCCCCCC(=O)NCC(=O)O [carboxymethyl amine] | 6.58 ug/disc | 0 | 0 | 2.6 | 7.0 | 10 |

From patent US4940730A, “Angiogenesis enhancer” (Takeda Chemical Industries, Ltd., priority 1987, dated 1990)
